In patent US5646131A, “Method for solubilizing drugs using cyclodextrins and carboxylic acids” (The Arab Company For Drug Industries And Medical …, priority 1995, dated 1997):
Values after ≈ are worked out from the molar mass of the structure shown. Where two headings read alike, the source gives them in different places.

What was measured:
[1] = 30° C.; for Solubility, beta-cyclodextrin + citric acid / Solubility, beta-cyclodextrin + glutaric acid / Solubility, beta-cyclodextrin + lactic acid / Solubility, beta-cyclodextrin + tartaric acid: 2% β-cyclodextrin; for Solubility, beta-cyclodextrin + lactic acid: 1% lactic acid; for Solubility in 2% aq. beta CD soln.: water containing 2% β-cyclodextrin
[2] = physchem; conditions: water
[3] = with β-cyclodextrin; Menard et al 1990; cited from earlier work

solubility [2] [µg/mL]	Solubility, beta-cyclodextrin + glutaric acid (*trisodium salt) (2% beta-cd, 1% glutarate salt) [mg/mL]	Solubility, beta-cyclodextrin + tartaric acid (*trisodium salt) (2% beta-cd, 1% tartrate salt) [mg/mL]	Solubility in 2% aq. beta CD soln. (water, 2% beta-cyclodextrin) [mg/mL]	Solubility, alpha-cyclodextrin + citric acid ([1]; 2% α-cyclodextrin, 1% citric acid, aqueous) [mg/mL]	Solubility, alpha-cyclodextrin + glutaric acid ([1]; 2% α-cyclodextrin, 1% glutaric acid, aqueous) [mg/mL]	Solubility, alpha-cyclodextrin + tartaric acid ([1]; 2% α-cyclodextrin, 1% tartaric acid, aqueous) [mg/mL]	Solubility, gamma-cyclodextrin + citric acid ([1]; 2% γ-cyclodextrin, 1% citric acid, aqueous) [mg/mL]	Solubility, gamma-cyclodextrin + glutaric acid ([1]; 2% γ-cyclodextrin, 1% glutaric acid, aqueous) [mg/mL]	Solubility, gamma-cyclodextrin + tartaric acid ([1]; 2% γ-cyclodextrin, 1% tartaric acid, aqueous) [mg/mL]	SMILES	Solubility, beta-cyclodextrin + citric acid ([1]; 1% citric acid, aqueous) [mg/mL]	Solubility, beta-cyclodextrin + glutaric acid ([1]; 1% glutaric acid, aqueous) [mg/mL]	Solubility, beta-cyclodextrin + lactic acid ([1]; aqueous) [mg/mL]	Solubility, beta-cyclodextrin + tartaric acid ([1]; 1% tartaric acid, aqueous) [mg/mL]	Solubility in 2% aq. beta CD soln. [1] [mg/mL]	Relationship between solubility and concentration at different pH [3]	Solubility in water ([1]; water)
< 10	3.00	1.36	0.69 (≈ 3340 µM)							CC(C)Cc1ccc(C(C)C(=O)O)cc1 (stereo not shown) [Ibuprofen]						the relationship between solubility and concentration is the same at different pH levels	
										CN1C(C(=O)Nc2ccccn2)=C(O)c2ccccc2S1(=O)=O [Piroxicam]					0.072 (≈ 217 µM)		insoluble
< 10				2.15	7.17	1.31	2.20	6.08	1.22	CC(C)(C)c1ccc(C(O)CCCN2CCC(C(O)(c3ccccc3)c3ccccc3)CC2)cc1 (stereo not shown) [Terfenadine]	5.68	5.49	8.87	5.21	0.01 (≈ 21.2 µM)		

SMILES	solubility [2] [µg/mL]	Solubility, beta-cyclodextrin + glutaric acid (*trisodium salt) (2% beta-cd, 1% glutarate salt) [mg/mL]	Solubility, beta-cyclodextrin + tartaric acid (*trisodium salt) (2% beta-cd, 1% tartrate salt) [mg/mL]	Solubility in 2% aq. beta CD soln. (water, 2% beta-cyclodextrin) [mg/mL]	Solubility, alpha-cyclodextrin + citric acid ([1]; 2% α-cyclodextrin, 1% citric acid, aqueous) [mg/mL]	Solubility, alpha-cyclodextrin + glutaric acid ([1]; 2% α-cyclodextrin, 1% glutaric acid, aqueous) [mg/mL]	Solubility, alpha-cyclodextrin + tartaric acid ([1]; 2% α-cyclodextrin, 1% tartaric acid, aqueous) [mg/mL]	Solubility, gamma-cyclodextrin + citric acid ([1]; 2% γ-cyclodextrin, 1% citric acid, aqueous) [mg/mL]	Solubility, gamma-cyclodextrin + glutaric acid ([1]; 2% γ-cyclodextrin, 1% glutaric acid, aqueous) [mg/mL]	Solubility, gamma-cyclodextrin + tartaric acid ([1]; 2% γ-cyclodextrin, 1% tartaric acid, aqueous) [mg/mL]	Solubility, beta-cyclodextrin + citric acid ([1]; 1% citric acid, aqueous) [mg/mL]	Solubility, beta-cyclodextrin + glutaric acid ([1]; 1% glutaric acid, aqueous) [mg/mL]	Solubility, beta-cyclodextrin + lactic acid ([1]; aqueous) [mg/mL]	Solubility, beta-cyclodextrin + tartaric acid ([1]; 1% tartaric acid, aqueous) [mg/mL]	Solubility in 2% aq. beta CD soln. [1] [mg/mL]	Relationship between solubility and concentration at different pH [3]	Solubility in water ([1]; water)
COc1cc(N)c(Cl)cc1C(=O)NC1CCN(CCCOc2ccc(F)cc2)CC1OC (stereo not shown) [Cisapride]	3 (≈ 6.44 µM)										0.55	2.07	11.4	4.38	0.015 (≈ 32.2 µM)		
